Reference: US20250108038A1 (priority 2023, published 2025)
Several values for one entry are separate records, joined by “and”; a condition that tells them apart may be missing. Equal entries are not always repeated.

Test system: Long Evans rats
Test: Behavioral satiety sequence (BSS)
Assay type: in vivo, Long Evans rat
Settings: Compound I-19 0.3 mg/kg
Description: The Behavioural Satiety Sequence (BSS) is a technique used to evaluate physiological satiety. It is based on the expression of a sequence of behaviors including eating, grooming, locomotor activity, followed by resting, which are typically observed in rodents post-ingestion (Halford et al, 1998, Pharmacology Biochemistry and Behaviour. 61(2): 159-168). The BSS is a widely used model for determining the effects of novel pharmaceuticals on food intake and measures of satiety in rodents (Oliveira et al, 2011, Revista de Nutrição. 24(4) 619-628), and to discriminate the cause of reduced food intake following pharmacological manipulation. For example, treatments that may reduce food intake by non-specific mechanisms, such as immobility, malaise, and taste adulteration, will disrupt this sequence (Halford et al, 1998, Pharmacology Biochemistry and Behaviour. 61(2): 159-168).
Specifically, 12 male Long-Evans rats were food-deprived for 22 h with a 2 h feeding period each day. Rats were trained to consume daily food during the 2 h period over 25 days. The testing phase was initiated once the rats consistently consumed 16-18 g of food per day with ≤10% variance in amount of feed consumed. Feeding took place in designated individual boxes in a quiet room separate from the housing room. Continuous remote monitoring via video camera during feeding was used to assess the BSS. Food consumption was measured by weighing the total available food before and after the 2 h feeding window, correcting for spillage. Lorcaserin (1 mg/kg) was included as a reference control (Higgins et al, 2011, Neuropsychopharmacology. 37(5): 1177-1191). Subjects were tested using a repeated-measures, Latin square design with 2-3 days wash-out between treatment cycles.
On scheduled test days, animals were monitored remotely via video camera during the feeding access period. The occurrence of four mutually exclusive behaviors (eating/drinking, grooming, active, rest) were individually scored. Over the 2 h feeding period, behaviors were assessed every 30 seconds. Scores were compiled into 23 5 min timebins (timebin 24 was removed due to early removal of animals) and the frequency of each behavior within each timebin was calculated to determine a temporal frequency of each measure (Rodgers et al, 2010, Pharmacology Biochemistry and Behaviour. 97: 3-14). Percentage time was plotted for each behavioral sequence in each timebin to compare between treatment groups (Higgins et al, 2011, Neuropsychopharmacology. 37(5): 1177-1191).

[1] = AVG of animals LT-1 to LT-12, 0-0.5 hours
[2] = raw data per animal LT-1 to LT-12, 0-0.5 hours
[3] = raw score per animal (LT-1 to LT-12)

## Clc1ccc(C2(OCC3OCCO3)c3ccccc3C3=NCCN32)cc1 (stereo not drawn) [Compound I-19]
AVG of animals LT-1 to LT-12
  BSS scoring G (grooming), Time Bin 19 (90-95 TOTAL), AVG: 0.05
  BSS scoring G (grooming), Time Bin 20 (95-100 TOTAL), AVG: 0.05
  BSS scoring G (grooming), Time Bin 21 (100-105 TOTAL), AVG: 0.02
  BSS scoring G (grooming), Time Bin 22 (105-110 TOTAL), AVG: 0.01
  BSS scoring G (grooming), Time Bin 23 (110-115 TOTAL), AVG: 0.05
  BSS scoring G (grooming), Time Bin 24 (115-120 TOTAL), AVG: 0.04
  BSS scoring R (resting), Time Bin 19 (90-95 TOTAL), AVG: 0.11
  BSS scoring R (resting), Time Bin 20 (95-100 TOTAL), AVG: 0.09
  BSS scoring R (resting), Time Bin 21 (100-105 TOTAL), AVG: 0.19
  BSS scoring R (resting), Time Bin 22 (105-110 TOTAL), AVG: 0.21
  BSS scoring R (resting), Time Bin 23 (110-115 TOTAL), AVG: 0.16
  BSS scoring R (resting), Time Bin 24 (115-120 TOTAL), AVG: 0.21
[1]
  BSS scoring A (active), Time Bin 1 (0-5 TOTAL), AVG: 0.09
  BSS scoring A (active), Time Bin 2 (5-10 TOTAL), AVG: 0.02
  BSS scoring A (active), Time Bin 3 (10-15 TOTAL), AVG: 0.03
  BSS scoring A (active), Time Bin 4 (15-20 TOTAL), AVG: 0.08
  BSS scoring A (active), Time Bin 5 (20-25 TOTAL), AVG: 0.07
  BSS scoring A (active), Time Bin 6 (25-30 TOTAL), AVG: 0.08
  BSS scoring E (eating/drinking), Time Bin 1 (0-5 TOTAL), AVG: 0.88
  BSS scoring E (eating/drinking), Time Bin 2 (5-10 TOTAL), AVG: 0.95
  BSS scoring E (eating/drinking), Time Bin 3 (10-15 TOTAL), AVG: 0.94
  BSS scoring E (eating/drinking), Time Bin 4 (15-20 TOTAL), AVG: 0.90
  BSS scoring E (eating/drinking), Time Bin 5 (20-25 TOTAL), AVG: 0.88
  BSS scoring E (eating/drinking), Time Bin 6 (25-30 TOTAL), AVG: 0.88
  BSS scoring G (grooming), Time Bin 1 (0-5 TOTAL), AVG: 0.03
  BSS scoring G (grooming), Time Bin 2 (5-10 TOTAL), AVG: 0.03
  BSS scoring G (grooming), Time Bin 3 (10-15 TOTAL), AVG: 0.03
  BSS scoring G (grooming), Time Bin 4 (15-20 TOTAL), AVG: 0.01
  BSS scoring G (grooming), Time Bin 5 (20-25 TOTAL), AVG: 0.03
  BSS scoring G (grooming), Time Bin 6 (25-30 TOTAL), AVG: 0.02
  BSS scoring R (resting), Time Bin 1 (0-5 TOTAL), AVG: 0.01
  BSS scoring R (resting), Time Bin 2 (5-10 TOTAL), AVG: 0.00
  BSS scoring R (resting), Time Bin 3 (10-15 TOTAL), AVG: 0.00
  BSS scoring R (resting), Time Bin 4 (15-20 TOTAL), AVG: 0.02
  BSS scoring R (resting), Time Bin 5 (20-25 TOTAL), AVG: 0.03
  BSS scoring R (resting), Time Bin 6 (25-30 TOTAL), AVG: 0.03
[2]
  BSS scoring A (active), Time Bin 1 (0-5 TOTAL): 1 (5×) and 0 (4×) and 2 (3×)
  BSS scoring A (active), Time Bin 2 (5-10 TOTAL): 0 (10×) and 1 (2×)
  BSS scoring A (active), Time Bin 3 (10-15 TOTAL): 0 (9×) and 2 and 1 (2×)
  BSS scoring A (active), Time Bin 4 (15-20 TOTAL): 0 (7×) and 1 (3×) and 2 and 4
  BSS scoring A (active), Time Bin 5 (20-25 TOTAL): 3 and 0 (7×) and 1 (3×) and 2
  BSS scoring A (active), Time Bin 6 (25-30 TOTAL): 1 (3×) and 0 (6×) and 2 (3×)
  BSS scoring E (eating/drinking), Time Bin 1 (0-5 TOTAL): 9 (6×) and 7 and 8 (3×) and 10 (2×)
  BSS scoring E (eating/drinking), Time Bin 2 (5-10 TOTAL): 9 (6×) and 10 (6×)
  BSS scoring E (eating/drinking), Time Bin 3 (10-15 TOTAL): 10 (6×) and 9 (5×) and 8
  BSS scoring E (eating/drinking), Time Bin 4 (15-20 TOTAL): 10 (4×) and 9 (6×) and 8 and 6
  BSS scoring E (eating/drinking), Time Bin 5 (20-25 TOTAL): 6 and 9 (6×) and 10 (3×) and 8 and 7
  BSS scoring E (eating/drinking), Time Bin 6 (25-30 TOTAL): 9 (2×) and 10 (5×) and 7 and 8 (3×) and 6
  BSS scoring G (grooming), Time Bin 1 (0-5 TOTAL): 0 (9×) and 1 (3×)
  BSS scoring G (grooming), Time Bin 2 (5-10 TOTAL): 1 (4×) and 0 (8×)
  BSS scoring G (grooming), Time Bin 3 (10-15 TOTAL): 0 (9×) and 1 (3×)
  BSS scoring G (grooming), Time Bin 4 (15-20 TOTAL): 0 (11×) and 1
  BSS scoring G (grooming), Time Bin 5 (20-25 TOTAL): 1 (4×) and 0 (8×)
  BSS scoring G (grooming), Time Bin 6 (25-30 TOTAL): 0 (10×) and 1 (2×)
  BSS scoring R (resting), Time Bin 1 (0-5 TOTAL): 0 (11×) and 1
  BSS scoring R (resting), Time Bin 2 (5-10 TOTAL): 0
  BSS scoring R (resting), Time Bin 3 (10-15 TOTAL): 0
  BSS scoring R (resting), Time Bin 4 (15-20 TOTAL): 0 (10×) and 1 (2×)
  BSS scoring R (resting), Time Bin 5 (20-25 TOTAL): 0 (10×) and 1 and 2
  BSS scoring R (resting), Time Bin 6 (25-30 TOTAL): 0 (10×) and 3 and 1
[3]
  BSS scoring A (active), Time Bin 19 (90-95 TOTAL): 0 (4×) and 5 (2×) and 2 (2×) and 6 and 3 and 1 (2×)
  BSS scoring A (active), Time Bin 20 (95-100 TOTAL): 3 (2×) and 2 (2×) and 0 (4×) and 1 (2×) and 4 (2×)
  BSS scoring A (active), Time Bin 21 (100-105 TOTAL): 0 (7×) and 1 (3×) and 2 (2×)
  BSS scoring A (active), Time Bin 22 (105-110 TOTAL): 0 (8×) and 4 and 1 and 2 (2×)
  BSS scoring A (active), Time Bin 23 (110-115 TOTAL): 4 (2×) and 3 and 1 and 0 (4×) and 6 (2×) and 2 and 7
  BSS scoring A (active), Time Bin 24 (115-120 TOTAL): 0 (6×) and 3 (2×) and 5 and 1 (2×) and 4
  BSS scoring E (eating/drinking), Time Bin 19 (90-95 TOTAL): 9 (5×) and 4 (2×) and 0 and 2 and 7 and 8 and 5
  BSS scoring E (eating/drinking), Time Bin 20 (95-100 TOTAL): 7 and 6 (2×) and 10 (3×) and 9 and 8 (2×) and 1 and 4 (2×)
  BSS scoring E (eating/drinking), Time Bin 21 (100-105 TOTAL): 10 (4×) and 9 (2×) and 6 and 7 and 0 and 8 and 5 and 4
  BSS scoring E (eating/drinking), Time Bin 22 (105-110 TOTAL): 10 (6×) and 0 (2×) and 3 and 7 and 8 and 5
  BSS scoring E (eating/drinking), Time Bin 23 (110-115 TOTAL): 5 (2×) and 6 and 9 (2×) and 1 (2×) and 4 (2×) and 0 and 8 and 10
  BSS scoring E (eating/drinking), Time Bin 24 (115-120 TOTAL): 0 (3×) and 6 (2×) and 10 and 4 (2×) and 2 and 8 (2×) and 5
  BSS scoring G (grooming), Time Bin 19 (90-95 TOTAL): 0 (8×) and 1 (3×) and 3
  BSS scoring G (grooming), Time Bin 20 (95-100 TOTAL): 0 (8×) and 1 (2×) and 2 (2×)
  BSS scoring G (grooming), Time Bin 21 (100-105 TOTAL): 0 (10×) and 1 (2×)
